Experimental data reported in article PMC5360416 (Journal of pharmaceutical sciences, 2014).
Counter-ions that a name gives are not always drawn.

Assays:
[1] = Pharmacokinetics in adult male SD rats; format: in vivo, rat; settings: 6 mg/kg; for AUC(0-inf) / Cmax: male, Sprague-Dawley, rat, plasma
[2] = stated without reference, cited from earlier work
[3] = system: MCT induced PAH rats; experiment: Acute hemodynamic efficacy in MCT induced PAH rats; format: in vivo, rat; settings: 3 mg/kg
[4] = system: rat PASM cells
[5] = Short-term lung toxicity, bronchoalveolar lavage; format: in vivo, rat; settings: 12 hrs
[6] = 0.1% SDS, compared with CAR-micelles and plain drug

| Structure (SMILES) | time after which no plasma concentration was shown ([1]; IT) [h] | time after which no plasma concentration was shown ([1]; IV) [h] | AUC(0-inf) ([1]; inhaled or intranasal) [ng·h/mL] | Cmax ([1]; inhaled or intranasal) [ng/mL] | AUC(0-inf) ([1]; iv) [ng·h/mL] | Cmax ([1]; iv) [ng/mL] | solubility in methanol ([2]; methanol) | solubility in water ([2]; water) [mg/mL] | reduction in MPAP, IT versus IV ([3]; plain fasudil IT) | reduction in MSAP ([3]; plain fasudil IV and IT) | cell viability [4] [%] | ALP level in BAL fluid [5, 6] | LDH level in BAL fluid [5, 6] | wet lung weight compared to saline treated rats ([5]; intratracheal, CAR-micelles equivalent to 6 mg/kg fasudil, SDS 0.1%) |
| --- | --- | --- | --- | --- | --- | --- | --- | --- | --- | --- | --- | --- | --- | --- |
| O=S(=O)(c1cccc2cnccc12)N1CCCNCC1 [Fasudil, Fasudil hydrochloride] | 6 | 2 | 21700 ± 4080 | 1450 ± 580 | 27600 ± 3910 | 3780 ± 230 | moderately soluble | ~200 | more pronounced reduction in MPAP than IV fasudil | significant reduction | – | – | – | – |
| CCCCCCCCCCCCOS(=O)(=O)[O-].[Na+] [SDS, sodium dodecyl sulfate] | – | – | – | – | – | – | – | – | – | – | ~16 | elevated levels | elevated levels | two-fold |
